In ChEMBL document CHEMBL1201862, “PubChem BioAssay data set” (2004):
Calls of active or inactive are those of the source.

Columns and labels:
fMet-Leu-Phe receptor = target: T1, fMet-Leu-Phe receptor (Homo sapiens, UniProt P21462); assay: FPR ligands, dose response (AID 519); format: functional
T1 sequence (P21462 whole entry): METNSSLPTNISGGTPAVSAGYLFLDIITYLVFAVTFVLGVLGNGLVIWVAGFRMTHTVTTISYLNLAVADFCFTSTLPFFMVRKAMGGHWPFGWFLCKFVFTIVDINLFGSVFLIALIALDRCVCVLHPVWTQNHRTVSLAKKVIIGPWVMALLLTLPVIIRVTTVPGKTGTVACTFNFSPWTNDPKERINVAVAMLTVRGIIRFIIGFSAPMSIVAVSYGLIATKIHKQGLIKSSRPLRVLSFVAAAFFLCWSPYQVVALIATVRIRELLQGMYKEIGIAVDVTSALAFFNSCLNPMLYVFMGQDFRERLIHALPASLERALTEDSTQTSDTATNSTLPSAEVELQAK

Protein skinhead-1 = target: T2, Protein skinhead-1 (Caenorhabditis elegans, UniProt P34707); format: functional
T2 sequence (P34707 whole entry): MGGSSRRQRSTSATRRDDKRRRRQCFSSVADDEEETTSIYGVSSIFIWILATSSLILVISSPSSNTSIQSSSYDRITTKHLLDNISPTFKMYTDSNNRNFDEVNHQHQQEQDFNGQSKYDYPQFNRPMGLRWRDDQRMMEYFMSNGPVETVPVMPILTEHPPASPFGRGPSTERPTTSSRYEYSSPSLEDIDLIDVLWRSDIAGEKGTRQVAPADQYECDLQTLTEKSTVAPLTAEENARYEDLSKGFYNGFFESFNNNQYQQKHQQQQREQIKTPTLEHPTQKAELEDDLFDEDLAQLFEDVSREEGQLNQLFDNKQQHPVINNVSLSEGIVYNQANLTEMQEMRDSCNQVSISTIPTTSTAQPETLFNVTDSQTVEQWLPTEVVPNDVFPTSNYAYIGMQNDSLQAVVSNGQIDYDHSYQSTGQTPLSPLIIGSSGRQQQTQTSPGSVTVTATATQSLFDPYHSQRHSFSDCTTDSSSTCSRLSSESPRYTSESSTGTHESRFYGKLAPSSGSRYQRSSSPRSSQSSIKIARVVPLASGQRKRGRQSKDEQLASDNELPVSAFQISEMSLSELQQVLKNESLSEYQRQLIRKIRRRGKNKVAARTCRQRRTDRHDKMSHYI

Nonstructural protein 1 = Nonstructural protein 1 (Influenza A virus, UniProt Q194T2); format: functional, Influenza A virus (A/California/07/2009(H1N1))
[1] = target: Induced myeloid leukemia cell differentiation protein Mcl-1 (Homo sapiens, UniProt Q07820); format: functional
[2] = inhibitors of PGC1a acetylation in cells, dose response, cell-based, cherry-picked samples (AID 720514); format: functional;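 also: potency may reflect raised or lowered acetylation signal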
[3] = A549 cell cytotoxicity, dose response, cytotoxicity control, plate reader, cherry-pick, antagonist series (AID 743412); format: functional, cell-based
[4] = target: T3, Microphthalmia-associated transcription factor (Homo sapiens, UniProt O75030); assay: TRPM1 promoter luciferase signal decrease, dose response, MITF inhibitor project, cell-based, SK-MEL-5, cherry-picked, set 3 (AID 493073); format: functional
T3 sequence (O75030 whole entry): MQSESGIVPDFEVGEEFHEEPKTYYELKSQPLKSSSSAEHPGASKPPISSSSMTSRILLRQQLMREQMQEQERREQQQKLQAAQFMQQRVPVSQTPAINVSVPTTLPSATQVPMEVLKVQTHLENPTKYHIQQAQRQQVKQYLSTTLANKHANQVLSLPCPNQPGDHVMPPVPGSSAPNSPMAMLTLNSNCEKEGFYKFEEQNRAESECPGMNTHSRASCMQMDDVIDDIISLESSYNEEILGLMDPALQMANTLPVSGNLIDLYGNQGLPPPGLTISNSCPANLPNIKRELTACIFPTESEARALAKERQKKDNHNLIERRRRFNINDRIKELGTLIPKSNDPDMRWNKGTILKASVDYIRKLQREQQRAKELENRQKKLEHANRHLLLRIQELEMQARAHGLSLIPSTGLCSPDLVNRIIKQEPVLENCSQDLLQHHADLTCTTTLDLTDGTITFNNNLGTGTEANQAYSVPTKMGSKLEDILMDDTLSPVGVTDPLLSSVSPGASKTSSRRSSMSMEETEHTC

[5] = HEK293 cell cytotoxicity, dose response, cytotoxicity control, plate reader, cherry-picked samples (AID 743446); format: functional, cell-based
[6] = MC4R antagonists, dose response, counter-screen for LGR2 antagonist project, cell-based, plate reader, cherry pick (AID 743444); format: functional;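 also: transfected HEK 293 cells stimulated with alpha-MSH peptide; potency of inhibitors of the alpha-MSH evoked signal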
[7] = HepG2 cell cytotoxicity, dose response, cytotoxicity control, plate reader, cherry-pick, antagonist series (AID 743416); format: functional, cell-based
[8] = LGR2 antagonists, dose response, cell-based, HEK293, CRE-luciferase reporter, cherry pick, set 2 (AID 743343); format: functional;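 also: transfected cells were stimulated with diluted bursicon conditioned medium after compound addition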
[9] = target: T4, Glutathione-S-transferase (Schistosoma japonicum, UniProt Q26513); assay: biotin-GST/anti-GST TR-FRET signal inhibitors, dose response, artefact control for Vif-APOBEC3G degradation inhibitor project, biochemical (AID 1117362); format: functional
T4 sequence (Q26513 whole entry): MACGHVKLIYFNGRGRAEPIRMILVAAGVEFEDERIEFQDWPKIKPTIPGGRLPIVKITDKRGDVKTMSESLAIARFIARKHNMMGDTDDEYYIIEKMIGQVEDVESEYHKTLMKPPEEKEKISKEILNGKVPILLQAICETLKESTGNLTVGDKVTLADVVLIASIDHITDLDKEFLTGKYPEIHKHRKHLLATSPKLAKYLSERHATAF

[10] = target: Eukaryotic translation initiation factor 4E (Mus musculus, UniProt P63073); assay: eIF4E–eIF4G protein interaction inhibitors, dose response, biochemical, TR-FRET (AID 855); format: functional;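 also: potency for disrupting eIF4E binding to eIF4GI seen as loss of FRET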
[11] = P. falciparum Dd2 growth inhibitors, dose response, SYBR Green, cherry-picked samples (AID 1159567); format: functional, cell-based

Nonstructural protein 1, sequence (Q194T2 whole entry): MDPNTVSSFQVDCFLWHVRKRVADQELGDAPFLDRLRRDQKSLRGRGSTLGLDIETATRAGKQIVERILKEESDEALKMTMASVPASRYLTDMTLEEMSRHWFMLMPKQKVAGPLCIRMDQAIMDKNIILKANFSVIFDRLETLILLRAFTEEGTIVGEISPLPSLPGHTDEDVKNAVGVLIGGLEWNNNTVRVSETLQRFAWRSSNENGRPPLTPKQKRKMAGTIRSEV
Induced myeloid leukemia cell differentiation protein Mcl-1, sequence (Q07820 whole entry): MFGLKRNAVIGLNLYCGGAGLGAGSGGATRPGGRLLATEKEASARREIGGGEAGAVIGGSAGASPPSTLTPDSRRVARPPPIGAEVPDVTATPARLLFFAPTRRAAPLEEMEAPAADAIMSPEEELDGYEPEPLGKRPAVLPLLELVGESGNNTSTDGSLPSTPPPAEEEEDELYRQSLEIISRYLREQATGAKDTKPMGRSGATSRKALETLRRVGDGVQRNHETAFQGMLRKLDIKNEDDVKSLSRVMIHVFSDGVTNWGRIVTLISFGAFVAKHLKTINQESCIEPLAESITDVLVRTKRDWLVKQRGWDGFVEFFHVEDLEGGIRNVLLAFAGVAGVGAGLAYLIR
Eukaryotic translation initiation factor 4E, sequence (P63073 whole entry): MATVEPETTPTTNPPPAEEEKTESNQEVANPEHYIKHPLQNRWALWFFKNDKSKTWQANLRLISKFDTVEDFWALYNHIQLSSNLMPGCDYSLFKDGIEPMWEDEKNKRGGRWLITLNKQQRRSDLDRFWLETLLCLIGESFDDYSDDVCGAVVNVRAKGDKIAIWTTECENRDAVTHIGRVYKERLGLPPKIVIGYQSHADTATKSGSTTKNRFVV

CCCCn1c(NC(C)=O)c(C#N)c2nc3ccccc3nc21
Ki (fMet-Leu-Phe receptor): 45.7 µM (inactive)

CCN(CC)c1ccc(C(=S)N2CCN(c3ccccc3)CC2)cc1
IC50 (Protein skinhead-1): > 100 µM (inactive) | IC50 (Nonstructural protein 1): > 100 µM (active)

COC(=O)CSc1ncnc2c1sc1nc(-c3ccco3)c3c(c12)CC(C)(C)OC3
IC50 [1]: 4.15 µM (active)

COc1ccc(-c2cnc3c(c2)C(=O)N([C@H](C)CO)C[C@H](C)[C@@H](CN(C)C(=O)C2CCC2)O3)cc1
AC50 [2]: 25.8 µM (active)

Cn1nnnc1Sc1ncnc2scc(-c3ccc(C#N)cc3)c12
AC50 [3]: 7.28 µM (active) | AC50 [4]: 4.98 µM (active) | AC50 [5]: 10.9 µM (active) | AC50 [2]: 8.12 µM (active) | AC50 [6]: 3.6 µM (active) | AC50 [7]: 7.68 µM (active) | AC50 [8]: 5.18 µM (active)

COc1cc(/C=N/NC(=S)NCCN2CCOCC2)cc(OC)c1O
IC50 (Nonstructural protein 1): 70.1 µM (active)

COc1ccccc1-n1c(CNC(=O)c2ccco2)nnc1SCC(=O)Nc1ccc(F)cc1
Ki (fMet-Leu-Phe receptor): 63.3 µM (inactive)

O=C(COc1ccccc1Cl)c1ccc[nH]1
IC50 [9]: > 100 µM (active) | IC50 [10]: 50 µM (inactive)

CC(C)(C)[S@+]([O-])N1Cc2cc(C(=O)N[C@@H]3CCN(Cc4ccccc4)C3)nc(-c3cccc(-c4ccncc4)c3)c2[C@@H]1CCO
AC50 [11]: 4.68 µM (active)
